Test system: OVA antigen
Assay: IgG titer with OVA antigen (indirect ELISA, immunized mice)
Assay type: in vivo, BALB/c mice
Procedure: Adjuvanticity of 15b was evaluated using antigens (OVA, HBsAg, DENV and JEV) in BALB/c mice model—From the immunized mice retro-orbital sampling or retro-orbital blood was collected on 14th and 28th day before sacrifice. Serum was separated by centrifugation at 12,500 rpm for 5 min. Transferred to a clean centrifuge tube and store at −80 until used.
The plates were coated with antigen in carbonate buffer. Plates were incubated at 4° C. overnight. They were then washed 3 times with PBS/Tween, and non-specific binding sites were blocked by adding 200 μl of blocking solution. Plates were incubated at room temperature for 1 h. Then 3 times wash is done, diluted standards and samples to desired concentrations in blocking solution were added to the plates. Incubate at 37° C. for 1 h or at 4° C. overnight. Plates were washed 3 times with PBS/Tween. Avidin-Horseradish Peroxidase (Av-HRP) was diluted and added. Incubated at room temperature for 30 min. Plates were washed 3 times with PBS/Tween. OPD Substrate was added and plates were incubated at room temperature (4-30 min) for colour development. The colour reaction was stopped by adding 50 μl of stop solution. Optical density (OD) was read at 492 nm.

Molecule	IgG titer with OVA antigen (dose 1 μg)	IgG titer with OVA antigen (dose 10 μg)	IgG titer with OVA antigen (dose 100 μg)	IgG titer with OVA antigen (OVA 100 μg alone)
CCCCCCCC(=O)OCCCCCCCC(=O)N[C@H]1C(O)O[C@H](CO)[C@@H](O)[C@@H]1O[C@H](C)C(=O)N[C@@H](C)C(=O)N[C@H](CCC(=O)O)C(N)=O (stereo partly drawn) [15 h, (4R)-5-amino-4-((2S)-2-((2R)-2-(((3R,4R,5S,6R)-2,5-dihydroxy-6-(hydroxymethyl)-3-(8-(octanoyloxy)octanamido)tetrahydro-2H-pyran-4-yl)oxy)propanamido)propanamido)-5-oxopentanoic acid]	8750-64000	10000-50000	3750-25000	
C[C@H](NC(=O)[C@@H](C)O[C@H]1[C@H](O)[C@@H](CO)OC(O)[C@@H]1NC(=O)C1CCC1)C(=O)N[C@H](CCC(=O)O)C(N)=O (stereo partly drawn) [15c, (4R)-5-amino-4-((2S)-2-((2R)-2-(((3R,4R,5S,6R)-3-(cyclobutanecarboxamido)-2,5-dihydroxy-6-(hydroxymethyl)tetrahydro-2H-pyran-4-yl)oxy)propanamido)propanamido)-5-oxopentanoic acid]	25000-102400	10000-85000	5500-75000	
C[C@H](NC(=O)[C@@H](C)O[C@H]1[C@H](O)[C@@H](CO)OC(O)[C@@H]1NC(=O)C1CCCC1)C(=O)N[C@H](CCC(=O)O)C(N)=O (stereo partly drawn) [15d, (4R)-5-amino-4-((2S)-2-((2R)-2-(((3R,4R,5S,6R)-3-(cyclopentanecarboxamido)-2,5-dihydroxy-6-(hydroxymethyl)tetrahydro-2H-pyran-4-yl)oxy)propanamido)propanamido)-5-oxopentanoic acid]	3200-12400	3200-41600	6400-84000	
C[C@H](NC(=O)[C@@H](C)O[C@H]1[C@H](O)[C@@H](CO)OC(O)[C@@H]1NC(=O)C1CCCCC1)C(=O)N[C@H](CCC(=O)O)C(N)=O (stereo partly drawn) [15e, (4R)-5-amino-4-((2S)-2-((2R)-2-(((3R,4R,5S,6R)-3-(cyclohexanecarboxamido)-2,5-dihydroxy-6-(hydroxymethyl)tetrahydro-2H-pyran-4-yl)oxy)propanamido)propanamido)-5-oxopentanoic acid]	1600-12400	1600-41600	12800-96000	
CCCCCCCCCCCC(=O)OCCCCCCCC(=O)N[C@H]1C(O)O[C@H](CO)[C@@H](O)[C@@H]1O[C@H](C)C(=O)N[C@@H](C)C(=O)N[C@H](CCC(=O)O)C(N)=O (stereo partly drawn) [15g, (4R)-5-amino-4-((2S)-2-((2R)-2-(((3R,4R,5S,6R)-3-(8-(dodecanoyloxy)octanamido)-2,5-dihydroxy-6-(hydroxymethyl)tetrahydro-2H-pyran-4-yl)oxy)propanamido)propanamido)-5-oxopentanoic acid]	25000-124000	10000-60000	5000-35000	
C[C@H](NC(=O)[C@@H](C)O[C@H]1[C@H](O)[C@@H](CO)OC(O)[C@@H]1NC(=O)C1CCCO1)C(=O)N[C@H](CCC(=O)O)C(N)=O (stereo partly drawn) [15i, (4R)-5-amino-4-((2S)-2-((2R)-2-(((3R,4R,5S,6R)-2,5-dihydroxy-6-(hydroxymethyl)-3-(tetrahydrofuran-2-carboxamido)tetrahydro-2H-pyran-4-yl)oxy)propanamido)propanamido)-5-oxopentanoic acid]	4800-50000	102400-560000	119466-484000	
OVA (protein, UniProt P01012 2-386, looked up) Ovalbumin: GSIGAASMEFCFDVFKELKVHHANENIFYCPIAIMSALAMVYLGAKDSTRTQINKVVRFDKLPGFGDSIEAQCGTSVNVHSSLRDILNQITKPNDVYSFSLASRLYAEERYPILPEYLQCVKELYRGGLEPINFQTAADQARELINSWVESQTNGIIRNVLQPSSVDSQTAMVLVNAIVFKGLWEKAFKDEDTQAMPFRVTEQESKPVQMMYQIGLFRVASMASEKMKILELPFASGTMSMLVLLPDEVSGLEQLESIINFEKLTEWTSSNVMEERKIKVYLPRMKMEEKYNLTSVLMAMGITDVFSSSANLSGISSAESLKISQAVHAAHAEINEAGREVVGSAEAGVDAASVSEEFRADHPFLFCIKHIATNAVLFFGRCVSP				6400-12800
